A short description of this data set: Iron oxidation (ferrous to ferric) during boiling in water in an open container. As to conditions: 2 hours. It counts as physicochemical. The procedure:
Dry micronutrient-loaded MPs were dispersed in water and then heated at 100° C. for 2 hours before being centrifuged at 4000 rpm for 5 min. Chemically stable MNs in both the supernatant and the MPs were quantified using the methods as described above. The stability percentage equals to the ratio of stable MN after heating as determined by HPLC to the actual loading content of the MN in the MPs. For samples in non-encapsulated form, they were either dissolved in water (water soluble vitamins such as vitamins B9 and B12) or dispersed in water (fat soluble vitamins such as vitamins A and D) before being heated for 2 hrs. Iron-loaded HA-EPO-MPs were dispersed in water and then heated at 100° C. for 2 hours and analyzed for ferrous and ferric content as described above.
It was investigated how iron encapsulation in HA-EPO-MPs impacts oxidation during boiling in water in an open container, since both higher temperatures and atmospheric exposure will accelerate iron oxidation. For encapsulated iron, less than 2% oxidizes to ferric iron, and for non-encapsulated iron over 15% is oxidized to ferric iron (FIG. 4D).

Experimental findings from patent US20190200664A1, “WATER AND FAT SOLUBLE MICRONUTIENT STABILIZED PARTICLES” (Massachusetts Institute of Technology, priority 2018, published 2019) are described below.

Consider ferrous sulfate [Non-Encapsulated Fe], for which the “iron oxidized to ferric iron” value is recorded as “over 15%”.
